Where two headings read alike, the source gives them in different places.
Experiments:
E. coli 16329 = experiment: Chemo-sensitization (Suppl. Table S1)
S. stanley 7308 = experiment: Chemo-sensitization (Suppl. Table S1); format: cell-based, Salmonella; conditions: for MIC: Salmonella enterica, 7308, read-out: MIC of rifampin in presence of C10KKc12K, S. stanley 7308
K. pneumoniae 1287 = experiment: Chemo-sensitization (Suppl. Table S1)
E. coli 14384 = experiment: Chemo-sensitization (Suppl. Table S1); conditions: for MIC: Escherichia coli, 14384, read-out: MIC of rifampin in presence of C10KKc12K, E. coli 14384
E. coli 14182 = experiment: Chemo-sensitization (Suppl. Table S1)
E. coli 35218 = experiment: Chemo-sensitization (Suppl. Table S1); conditions: for MIC: Escherichia coli, 35218, read-out: MIC of rifampin in presence of C10KKc12K, E. coli 35218
E. coli = experiment: MIC and reciprocal sensitization (Fig. 2a,b; Suppl. Figs S2, S3); format: cell-based, Escherichia coli
K. pneumoniae = experiment: Efficacy, peritonitis-sepsis model in neutropenic mice; format: in vivo, Klebsiella pneumoniae; conditions: IP K. pneumoniae 3 × 10^7 CFU, rifampin oral 0.45 mg/mouse or OAK SC 0.3 mg/mouse, 2 experiments, 10 mice/group, vehicle 20 ± 10%
Experimental: Animal studies were performed using male ICR mice (weight range, 23 ± 2 g) obtained from Harlan Laboratories (Rehovot, Israel). Procedures, care and handling of animals were reviewed and approved by Technion Animal Care and Use Committee.
Mice were rendered neutropenic by intraperitoneal (IP) injection of cyclophosphamide (150 and 100 mg/Kg on days 0 and 3, respectively). The procedure was confirmed to result in severe neutropenia by day 4, at which time infection was induced. The peritonitis-sepsis model was used whereby infection was obtained after IP injection of a logarithmic-phase culture of K. pneumoniae (3 × 10^7 CFU/mice in 0.3 ml PBS). […] Mice survival was monitored for up to 7 days post-treatment. Survival data were obtained from 2 independent experiments (n = 10 mice/group/experiment). Statistical analysis was performed using a paired t test were α equals 0.05.

[1] = Pharmacokinetic study, plasma concentrations by LC-MS; format: in vivo; conditions: mice, oral 20 mg/Kg, N = 2 mice/time point, mean ± s.d.
Experimental: Drugs blood concentrations were determined by LC-MS using calibrated curves essentially as described[5][9]. […] At specified time intervals mice were euthanized (CO2 asphyxiation) and blood samples collected from vena cava (N = 2 mice/time point). For analysis, samples were centrifuged (2 min, 6000 × g), 200 μl plasma were mixed with 0.5 ml extraction buffer (50% acetonitrile (ACN): 50% methanol) incubated (30 min on plate shaker at 200 rpm, RT), centrifuged (2 min, 14000 × g) and 300 μl supernatant diluted twofold in DDW and analyzed by LC-MS (5 μl injected to Waters Xevo G2 Tof/ACQUITY UPLC H-Class system). Flow rate, 0.5 ml/min. Run time, 5 min. Mobile phase, ACN/DDW combination containing 0.1% formic acid using an ACQUITY UPLC BEH column (C18 1.7 μm) and eluted with a 0–90% ACN gradient. Quantification was by MS detection in positive ionization mode using an identical procedure that was performed in mouse whole blood in order to establish standard calibration curves.

S. Typhimurium 14028 = experiment: Chemo-sensitization (Suppl. Table S1); conditions: for MIC: Salmonella enterica, TYPHIMURIUM
Klebsiella = experiment: MIC (Suppl. Figs S2, S3); format: cell-based
E. coli 16327 = experiment: Chemo-sensitization (Suppl. Table S1)

With `CO[C@H]1/C=C/O[C@@]2(C)Oc3c(C)c(O)c4c(O)c(c(/C=N/N5CCN(C)CC5)c(O)c4c3C2=O)NC(=O)/C(C)=C\C=C\[C@H](C)[C@H](O)[C@@H](C)[C@@H](O)[C@@H](C)[C@H](OC(C)=O)[C@@H]1C` [rifampin] the “SF, sensitization factor, rifampin with C10KKc12K” value (from here on “SF … with C10KKc12K”) (E. coli 16329; E. coli 16329) was 2000, the “SF, sensitization factor, rifampin with C12(ω7)KKc12K” value (“SF … with C12(ω7)KKc12K” below) (E. coli 16329; E. coli 16329) was 2000 and the MIC (E. coli 16329; Escherichia coli, 16329, read-out: MIC of rifampin in presence of C10KKc12K, E. coli 16329, OAK 0 µg/ml) was 16 µg/mL. For the same compound, the MIC (E. coli 16329; Escherichia coli, 16329, read-out: MIC of rifampin in presence of C10KKc12K, E. coli 16329, OAK 1.25 µg/ml) was 0.5 µg/mL, the MIC (E. coli 16329; Escherichia coli, 16329, read-out: MIC of rifampin in presence of C10KKc12K, E. coli 16329, OAK 5 µg/ml) was 0.008 µg/mL and the MIC (E. coli 16329; Escherichia coli, 16329, read-out: MIC of rifampin in presence of C12(ω7)KKc12K, E. coli 16329, OAK 0 µg/ml) was 16 µg/mL. The MIC (E. coli 16329; Escherichia coli, 16329, read-out: MIC of rifampin in presence of C12(ω7)KKc12K, E. coli 16329, OAK 1.25 µg/ml) was 8 µg/mL, the MIC (E. coli 16329; Escherichia coli, 16329, read-out: MIC of rifampin in presence of C12(ω7)KKc12K, E. coli 16329, OAK 2.5 µg/ml) was 0.031 µg/mL and the MIC (E. coli 16329; Escherichia coli, 16329, read-out: MIC of rifampin in presence of C12(ω7)KKc12K, E. coli 16329, OAK 5 µg/ml) was 0.008 µg/mL. The “SF … with C10KKc12K” value (S. stanley 7308; S. stanley 7308) was 2000, the MIC (S. stanley 7308; OAK 0 µg/ml) was 16 µg/mL and the MIC (S. stanley 7308; OAK 1.25 µg/ml) was 16 µg/mL. The MIC (S. stanley 7308; OAK 2.5 µg/ml) was 0.125 µg/mL, the MIC (S. stanley 7308; OAK 5 µg/ml) was 0.008 µg/mL and the “SF … with C12(ω7)KKc12K” value (K. pneumoniae 1287; K. pneumoniae 1287) was 5333. For the same compound, the MIC (K. pneumoniae 1287; Klebsiella pneumoniae, 1287, read-out: MIC of rifampin in presence of C10KKc12K, K. pneumoniae 1287, OAK 1.25 µg/ml) was 8 µg/mL, the MIC (K. pneumoniae 1287; Klebsiella pneumoniae, 1287, read-out: MIC of rifampin in presence of C10KKc12K, K. pneumoniae 1287, OAK 2.5 µg/ml) was 0.031 µg/mL and the MIC (K. pneumoniae 1287; Klebsiella pneumoniae, 1287, read-out: MIC of rifampin in presence of C12(ω7)KKc12K, K. pneumoniae 1287, OAK 1.25 µg/ml) was 4 µg/mL. The MIC (K. pneumoniae 1287; Klebsiella pneumoniae, 1287, read-out: MIC of rifampin in presence of C12(ω7)KKc12K, K. pneumoniae 1287, OAK 2.5 µg/ml) was 0.1 µg/mL, the MIC (K. pneumoniae 1287; Klebsiella pneumoniae, 1287, read-out: MIC of rifampin in presence of C12(ω7)KKc12K, K. pneumoniae 1287, OAK 5 µg/ml) was 0.006 µg/mL and the “SF … with C10KKc12K” value (E. coli 14384; E. coli 14384) was 258. It also gave an MIC (E. coli 14384; OAK 0 µg/ml) of 8 µg/mL, an MIC (E. coli 14384; OAK 1.25 µg/ml) of 0.5 µg/mL and an MIC (E. coli 14384; OAK 2.5 µg/ml) of 0.125 µg/mL. The MIC (E. coli 14384; OAK 5 µg/ml) was 0.031 µg/mL, the “SF … with C10KKc12K” value (E. coli 14182; E. coli 14182) was 516 and the “SF … with C12(ω7)KKc12K” value (E. coli 14182; E. coli 14182) was greater than 800. It also gave an MIC (E. coli 14182; Escherichia coli, 14182, read-out: MIC of rifampin in presence of C10KKc12K, E. coli 14182, OAK 0 µg/ml) of 16 µg/mL, an MIC (E. coli 14182; Escherichia coli, 14182, read-out: MIC of rifampin in presence of C10KKc12K, E. coli 14182, OAK 1.25 µg/ml) of 4 µg/mL and an MIC (E. coli 14182; Escherichia coli, 14182, read-out: MIC of rifampin in presence of C10KKc12K, E. coli 14182, OAK 2.5 µg/ml) of 0.125 µg/mL. For the same compound, the MIC (E. coli 14182; Escherichia coli, 14182, read-out: MIC of rifampin in presence of C10KKc12K, E. coli 14182, OAK 5 µg/ml) was 0.031 µg/mL, the MIC (E. coli 14182; Escherichia coli, 14182, read-out: MIC of rifampin in presence of C12(ω7)KKc12K, E. coli 14182, OAK 0 µg/ml) was 8 µg/mL and the MIC (E. coli 14182; Escherichia coli, 14182, read-out: MIC of rifampin in presence of C12(ω7)KKc12K, E. coli 14182, OAK 1.25 µg/ml) was 8 µg/mL. The MIC (E. coli 14182; Escherichia coli, 14182, read-out: MIC of rifampin in presence of C12(ω7)KKc12K, E. coli 14182, OAK 2.5 µg/ml) was 0.031 µg/mL, the MIC (E. coli 14182; Escherichia coli, 14182, read-out: MIC of rifampin in presence of C12(ω7)KKc12K, E. coli 14182, OAK 5 µg/ml) was less than 0.01 µg/mL and the “SF … with C10KKc12K” value (E. coli 35218; E. coli 35218) was 258. The MIC (E. coli 35218; OAK 0 µg/ml) was 8 µg/mL, the MIC (E. coli 35218; OAK 1.25 µg/ml) was 0.5 µg/mL and the MIC (E. coli 35218; OAK 5 µg/ml) was 0.031 µg/mL. For the same compound, the “standalone antibiotic MIC” value (E. coli) was 16 µg/mL, the “survivors at day 7, single dose monotherapy” value (K. pneumoniae) was 10% and the “plasma concentration reached after oral administration” value [1] was 13260 ± 2250 ng/mL. The “SF … with C10KKc12K” value (S. Typhimurium 14028; S. Typhimurium 14028) was 2000, the “SF … with C12(ω7)KKc12K” value (S. Typhimurium 14028; S. Typhimurium 14028) was 2667 and the MIC (S. Typhimurium 14028; read-out: MIC of rifampin in presence of C10KKc12K, S. Typhimurium 14028, OAK 0 µg/ml) was 16 µg/mL. The MIC (S. Typhimurium 14028; read-out: MIC of rifampin in presence of C10KKc12K, S. Typhimurium 14028, OAK 1.25 µg/ml) was 8 µg/mL, the MIC (S. Typhimurium 14028; read-out: MIC of rifampin in presence of C10KKc12K, S. Typhimurium 14028, OAK 5 µg/ml) was 0.008 µg/mL and the MIC (S. Typhimurium 14028; read-out: MIC of rifampin in presence of C12(ω7)KKc12K, S. Typhimurium 14028, OAK 0 µg/ml) was 16 µg/mL. For the same compound, the MIC (S. Typhimurium 14028; read-out: MIC of rifampin in presence of C12(ω7)KKc12K, S. Typhimurium 14028, OAK 1.25 µg/ml) was 8 µg/mL, the MIC (S. Typhimurium 14028; read-out: MIC of rifampin in presence of C12(ω7)KKc12K, S. Typhimurium 14028, OAK 2.5 µg/ml) was 0.016 µg/mL and the MIC (S. Typhimurium 14028; read-out: MIC of rifampin in presence of C12(ω7)KKc12K, S. Typhimurium 14028, OAK 5 µg/ml) was 0.006 µg/mL. The “standalone antibiotic MIC” value (Klebsiella) was 32 µg/mL, the “SF … with C10KKc12K” value (E. coli 16327; E. coli 16327) was 2000 and the “SF … with C12(ω7)KKc12K” value (E. coli 16327; E. coli 16327) was greater than 3200. It also gave an MIC (E. coli 16327; Escherichia coli, 16327, read-out: MIC of rifampin in presence of C10KKc12K, E. coli 16327, OAK 0 µg/ml) of 16 µg/mL, an MIC (E. coli 16327; Escherichia coli, 16327, read-out: MIC of rifampin in presence of C10KKc12K, E. coli 16327, OAK 1.25 µg/ml) of 0.5 µg/mL and an MIC (E. coli 16327; Escherichia coli, 16327, read-out: MIC of rifampin in presence of C10KKc12K, E. coli 16327, OAK 2.5 µg/ml) of 0.031 µg/mL. The MIC (E. coli 16327; Escherichia coli, 16327, read-out: MIC of rifampin in presence of C10KKc12K, E. coli 16327, OAK 5 µg/ml) was 0.008 µg/mL, the MIC (E. coli 16327; Escherichia coli, 16327, read-out: MIC of rifampin in presence of C12(ω7)KKc12K, E. coli 16327, OAK 0 µg/ml) was 16 to 32 µg/mL and the MIC (E. coli 16327; Escherichia coli, 16327, read-out: MIC of rifampin in presence of C12(ω7)KKc12K, E. coli 16327, OAK 1.25 µg/ml) was 8 µg/mL. It also gave an MIC (E. coli 16327; Escherichia coli, 16327, read-out: MIC of rifampin in presence of C12(ω7)KKc12K, E. coli 16327, OAK 2.5 µg/ml) of less than 0.01 µg/mL and an MIC (E. coli 16327; Escherichia coli, 16327, read-out: MIC of rifampin in presence of C12(ω7)KKc12K, E. coli 16327, OAK 5 µg/ml) of less than 0.01 µg/mL.

Source: article PMC4363860 (Scientific Reports, 2015)
